Assay results as given in patent US20260224732A1, “BIOPOLYMER PROTECTED OLIGONUCLEOTIDES FOR DRUG DELIVERY” (THE ROYAL INSTITUTION FOR THE ADVANCEMENT OF LEARNING / …, priority 2023, published 2026).
Read-outs that look alike come from different tables or passages of the source.

B1: dA30C4v2: hydrogel strands: 30 adenine followed by 20 complementary base pairs as overhang; strand1 and strand2, SEQ ID NO 33, 34 (nucleic acid)
chain 1: AAAAAAAAAAAAAAAAAAAAAAAAAAAAAACCCCATTCTACTTGAGAGAGCGAC
chain 2: AAAAAAAAAAAAAAAAAAAAAAAAAAAAAACCCCGTCGCTCTCTCAAGTAGAAT
modifications: DNA, backbone not given here; hydrogel-forming strands with complementary overhangs
B2: dA30-dsDNA13: half strand1 and half strand2, SEQ ID NO 31 and 32, double-stranded DNA crosslink (nucleic acid)
chain 1: AAAAAAAAAAAAAAAAAAAAAAAAAAAAAACTAGAAGTGTCCAGTTA
chain 2: AAAAAAAAAAAAAAAAAAAAAAAAAAAAAATTACTAACTGGACACTT
modifications: DNA, backbone not given here; crosslinked double-stranded DNA

What was measured:
[1] = test system: Epithelial cells; test: Cellular viability with CA and CA-R mixes; type: cell-based; conditions: after 5 days, pH 6; CA 20 mM alone or CA 20 mM plus the named CA-R (CAC2NH2 30 mM, CAC6NH2 12 mM)
From the text: Magnification of 10×, scale bar=100 μm, dapi in blue and factin in red.
Cellular viability. To be applicable in biological context, the toxicity of the CA and the combined CA-R mixes were verified. Epithelial cells were cultivated in media supplemented with various CA-R mixes and acidified at pH 6. Both the cellular viability and morphology was studied over a 5 day period.

[2] = type: in vitro ADME, bovine; conditions: pH 6
Description: (§1) The sample then was stored at −20° C.
(§2) Results. The PAGE analyses were performed for both CA concentrations, and imaged side-by-side (FIG. 2). The strongest resulting band intensities were normalised to the t=0 data-point, plotted as a function of time (See Supplemental), and then fitted to the first-order kinetics equations (Equations 1, 2, and FIG. 3). The rate constants were calculated from these graphs (using Equation 4), and tabulated according to strand and CA concentration (Table 2).
(§3) Equation 4. The Equation 2, written as relationship between the band intensities (I at some t, and at t=0), and the rate constant, k.

[3] = Serum stability assay in L15 media with FBS, denaturing PAGE band intensity; type: in vitro ADME, bovine; conditions: pH 6
Description: as §1, §2
Equation 1. First-order rate law for the variation of the concentration of a substance (in this case, nucleic acid, “NA”) with time, where [NA]t is the concentration of NA at a given time t, and [NA]0 is the initial concentration.
as §3

[4] = Rheological measurements of dA/CA hydrogels; type: physicochemical; conditions: for storage modulus (G′): same wt % (dA15 1400 μM, dA30 700 μM, dA50 420 μM), Mag buffer, 25° C.; for G′ window: dA50 420 μM, dA30C8 2 mM, CA 60 mM, CAC2NH2 90 mM
Description: Hydrogel Assembly and Rheology: Unless otherwise stated, the preparation of gels follows this procedure. The appropriate amounts of strands are evaporated from their stocks on a speedvaccuum in a 300 μL Eppendorf. For the dA30-dsDNAn hydrogels, the concentration is half strand1 and half strand2. Once dry, 50 μL or 100 μL of a buffer containing the desired concentration of CA and/or CAC2NH2 is added to the Eppendorf. […] Both buffers give similar gels rheologically (FIG. 40). For concentrations of CA exceeding 20 mM or CAC2NH2 30 mM, the excess CA-R is dried with the strands from a water/CA 20 mM solution adjusted to pH 6. The dried DNA is mixed and sonicated to help it dissolve, forming instantly a cloudy filamentous gel. To homogenize the gels, the Eppendorf is heated to 85° C. for 5 minutes a Bio-Rad T100TM thermocycler, then cooled down to 20° C. and kept at that temperature overnight, unless otherwise noted. They are measured the next day. It is important to properly homogenize the gels, mixing them at high temp if needed, and to quickly cool them, or they may form more localized aggregates with varying rheology. Due to the high melting temperature of dA30C8 2 mM, CA 60 mM, CAC2NH2 90 mM, the gel was prepared by heating at 100° C. for 20 min (sealed to prevent water escaping), before being brought to 20° C. Clear monophasic gels are formed from this process.
Rheological measurements: Rheological properties were measured using stress-controlled rheometer (MCR 302, Anton Paar) using a 15 mm diameter cone plate at 0.2 mm (50 μL gels) or 0.5 mm (100 μL gels) gap distance. Samples were taken directly from the Eppendorf in which they were formed by prying it open with a razor blade and placed under the cone plate. The temperature was maintained at 25° C. for all measurements using a Peltier temperature control unit unless otherwise noted. Due to the small thickness of the samples, no temperature gradients are expected. To avoid drying, a solvent trap was used in all the measurements. Amplitude sweeps were first conducted to assess the linear viscoelastic range of the samples by slowly increasing the strain from 0.01% to 100%. […] Oscillatory frequency sweep tests were measured between 0.1 Hz and 100 Hz at 0.1% strain. Strain-cycle experiment was done by cycling the gel between 0.1% and 100% strains at 1 Hz. To understand the shear-thinning behavior of the samples, the viscosity was measured at increasing strain rate ranging from (0.1-100 Hz).
• A) Strand complement. Two 50 μL dA30C4 700 μM hydrogel in Mag buffer with CA 20 mM samples were prepared, as well as a 10 μL sample of dG4T30 3 mM (1.5 eq.) in the same buffer and CA concentration. A sample of dA30C4 hydrogel was measured independently. The dG4T30 sample was added to the second dA30C4 sample and vortexed in its Eppendorf for 2 minutes before being measured. • B) Melamine. A 50 μL hydrogel composed of dA30-dsDNA13 700 μM and CA 20 mM in Mag buffer was measured in the rheometer. The plate of the rheometer was lifted and 50 μL of solution of 20 mM melamine in Mag buffer at pH6 was added to it. Instant white precipitate formed and was encouraged by gently mixing with a spatula for 30s before the resulting liquid with solid precipitate was measured rheologically. • C) pH. A volume of 180 μL of dA30C4v2 700 μM CA 20 mM hydrogel in Mag buffer was prepared. The initial pH was measured at 5.71 with a surface pH meter (Mettler Toledo). An approximate volume of 50 μL was separated and measured rheologically. To the remaining 130 μL, 2.70 μL of NaOH 5.04M was added and stirred through vortexing. The resulting pH of the liquid was measured at 7.91. 50 μL of it were measured rheologically. To the remaining 80 μL, 1.5 μL of HCl 5.04M was added by aliquot and mixed through vortexing, forming a gel with a pH of 5.66 after 2 minutes. To note that in general, it is important to mix vigorously with the addition of the acid, or localized gels will form rather than a homogeneous one. […]

Row | Molecule | k 0 mM [CA] [2] | k 20 mM [CA] [2] | k 0 mM [CA] [3] | k 20 mM [CA] [3] | also measured
1 | NCCn1c(=O)[nH]c(=O)[nH]c1=O [CAC2NH2] |  |  |  |  | viability [1]: 82±5%
2 | NCCCCCCn1c(=O)[nH]c(=O)[nH]c1=O [CAC6NH2] |  |  |  |  | viability [1]: 43±2%
3 | Control random: DNA GATGAGGTACCCAGAAGCCGAACTGGGCCAGACAACCCGGCGCTAAC, SEQ ID NO 11, no polyA (DNA, backbone not given here) [reference compound] | (3.86 ± 0.2) × 10^−2 h^−1 | (3.48 ± 0.8) × 10^−2 h^−1 |  |  | 
4 | R7rA15: RNA strand AAAAAAAAAAAAAAAGTCATCG, SEQ ID NO 3 in Table 1; Table 5 swaps the name with rA15R7 (AAAAAAAAAAAAAAAGUCAUCG; chemistry not fully specified) [Strand R7rA15] | (2.80 ± 0.7) × 10^−2 h^−1 | (7.47 ± 0.4) × 10^−3 h^−1 | (3.73) × 10^−2 h^−1 | (2.59) × 10^−3 h^−1 | 
5 | dA15: DNA strand of 15 adenines, SEQ ID NO 5 (DNA AAAAAAAAAAAAAAA; DNA, backbone not given here) |  |  |  |  | storage modulus (G′) ([4]; 1 Hz, CA 20 mM): 1.3±0.8×10^1 Pa; storage modulus ([4]; pure dA15 hydrogel with CA): ~10^1 Pa; storage modulus ([4]; pure dA15 hydrogel with CAC2NH2 instead of CA, 0.7 wt % (including CAC2NH2)): ~10^3 Pa
6 | dA30C4-v2′: DNA strand, 30 adenines then CCCCGTCGCTCTCTCAAGTAGAAT, SEQ ID NO 10 (DNA AAAAAAAAAAAAAAAAAAAAAAAAAAAAAACCCCGTCGCTCTCTCAAGTAGAAT; DNA, backbone not given here) | (1.33 ± 0.1) × 10^−2 h^−1 | (3.46 ± 0.5) × 10^−3 h^−1 |  |  | 
7 | dA30C4: DNA strand, 30 adenines then CCCC, SEQ ID NO 9 (DNA AAAAAAAAAAAAAAAAAAAAAAAAAAAAAACCCC; DNA, backbone not given here) |  |  | (5.83) × 10^−3 h^−1 | (−2.08) × 10^−3 * h^−1 | G′ and G″ after addition of the complementary strand dG4T30 ([4]; dA30C4 700 μM, CA 20 mM, dG4T30 1.5 eq.): large loss of G′ and G″
8 | dA30C8: DNA strand, 30 adenines then CCCCCCCC, SEQ ID NO 8 (DNA AAAAAAAAAAAAAAAAAAAAAAAAAAAAAACCCCCCCC; DNA, backbone not given here) | (2.29 ± 0.5) × 10^−2 h^−1 | (4.87 ± 0.7) × 10^−3 h^−1 |  |  | moduli at 37° C. ([4]; 1.7 wt % gel, room temperature to 37° C.): virtually unchanged; G′ ([4]; 1.7 wt %, mixture of CA and CAC2NH2): ~10^4 Pa; G′ ([4]; 4.7 wt % (CA-R included), 1 Hz): 8±1×10^4 Pa; G′ ([4]; 4.7 wt % (CA-R included), 10 Hz): 1±0.1×10^5 Pa; storage modulus at 85° C. ([4]; 4.7 wt % gel, 85° C.): above 10^4 Pa; G′ window ([4]; CA 20 mM): ~10^5 Pa; gel state at 100° C. ([4]; qualitatively observed): staying a gel
9 | dA50: DNA strand of 50 adenines, SEQ ID NO 28 (DNA AAAAAAAAAAAAAAAAAAAAAAAAAAAAAAAAAAAAAAAAAAAAAAAAAA; DNA, backbone not given here) |  |  |  |  | storage modulus (G′) ([4]; 1 Hz, CA 20 mM): 4±2×10^1 Pa; G′ window ([4]; CA 20 mM): ~10^1 Pa
10 | rA15: RNA strand AAAAAAAAAAAAAAA, SEQ ID NO 1 (RNA, backbone not given here) | (2.43 ± 0.3) × 10^−2 h^−1 | (2.42 ± 0.2) × 10^−3 h^−1 | (6.70) × 10^−2 h^−1 | (1.07) × 10^−2 h^−1 | 
11 | rA15R7: RNA strand GCTACTGAAAAAAAAAAAAAAA, SEQ ID NO 2 in Table 1; Table 5 swaps the name with R7rA15 (GCUACUGAAAAAAAAAAAAAAA; chemistry not fully specified) | (1.25 ± 0.2) × 10^−1 h^−1 | (2.25 ± 0.2) × 10^−3 h^−1 | (4.67) × 10^−2 h^−1 | (4.16) × 10^−3 h^−1 | 
12 | B1 |  |  |  |  | storage modulus G′ (1 Hz) ([4]; 700 μM strands (1.4 wt % for dA30C4v2), CA 20 mM): 4±0.8×10^3 Pa; G′ ([4]; 4 wt % (CA included)): 3×10^4 Pa
13 | B2 |  |  |  |  | yield point of the gel (G″ overtakes G′) ([4]; 700 μM): Around 1 % shear strain; G′ and G″ after adding stoichiometric amount of melamine ([4]; 700 μM, CA 20 mM, melamine 20 mM): greatly decreases G′ and G″; self-healing, return to initial modulus ([4]; cycling low shear (0.1%) and high shear (100%)): under 1 min
